From patent publication US20100113372A1, “Method For Preparing Kaempferol-3-0-Rutinoside and Composition of Skin External Application Comprising Thereof” (Amorepacific Corporation, priority 2006, published 2010)

Tests used:
procollagen = experiment: Promoting effect of procollagen generation (procollagen type-1 C-peptide EIA kit); format: cell-based; settings: human fibroblasts; for Degree of procollagen generation (%): serum-free DMEM, 1×10^−4M for 24 hours, untreated group = 100
Description: The promoting effect of procollagen generation achieved by kaempferol-3-O-rutinoside obtained from Examples 3 and 4 is measured and compared with that achieved by vitamin C. The procollagen is a material inducing collagen generation and is required to generate collagen and prevent aging. Vitamin C is known as an essential component for synthesis of collagen.
Human fibroblasts were inserted in a 96-well microtiter plate containing the DMEM (Dulbecco's Modified Eagle's Media) media with 2.5% fetal bovine serum to a quantity of 5000 cells/well and cultured until the human fibroblasts grow by 90%, then cultured again in the serum-free DMEM media for 24 hours. The kaempferol-3-O-rutinoside of Examples 3 and 4, and vitamin C dissolved in the serum-free DMEM media were treated at a concentration of 1×10^−4M for 24 hours, and the cell culture media was harvested. After 24 hours, the amount of procollagen floating in the culture media was measured using procollagen type-1 C-peptide EIA kit (MK101, Takara, Japan).
In an untreated group, a degree of procollagen generation is 100. A degree of procollagen generation of a group treated with the material as compared to that of the control group is obtained.

collagenase = experiment: Inhibitory effect of collagenase expression (collagenase immunoassay of fibroblast culture media); format: cell-based; settings: human fibroblasts; for Degree of collagenase expression (%): serum-free DMEM, 1×10^4M for 24 hours, untreated group = 100
Description: The effect of inhibiting collagenase expression achieved by kaempferol-3-O-rutinoside obtained from Examples 3 and 4 is measured and compared with that achieved by tocopherol and EGCG. Tocopherol and EGCG are anti-oxidation materials that regenerate an epidermal cell of skin and prevent skin aging.
Human fibroblasts were inserted in a 96-well microtiter plate containing the DMEM (Dulbecco's Modified Eagle's Media) media with 2.5% fetal bovine serum to a quantity of 5000 cells/well and cultured until the human fibroblasts grow by 90%, then cultured again in the serum-free DMEM media for 24 hours. The kaempferol-3-O-rutinoside of Examples 3 and 4, tocopherol and EGCG dissolved in the serum-free DMEM media were treated at a concentration of […] for 24 hours, and the cell culture media was harvested.
The degree of collagenase generation of harvested cell culture media was measured using an instrument for measuring collagenase (Amershampharmacia Company). The harvested cell culture media was added in a 96-well plate coated uniformly with first collagenase antibody, and antigen-antibody reaction was conducted for 3 hours in a thermostat.
After 3 hours, second collagen antibody bonded with chromophore was added in the 96-well plate to react for 15 minutes. After 15 minutes, color developing material was inserted at room temperature for 15 minutes to induce color development, then 1M sulfuric acid was added to terminate the reaction (color development). The color of the reaction solution is yellow and the degree of yellow color can differ according to a degree of reaction progression.
Absorbance of the 96-well plate having the yellow color was measured through an absorbency measurement at 405 nm and a degree of synthesis was calculated by the following equation 1. In the calculation, an absorbance of cell culture media untreated with the material was used as a control group. That is, a degree of collagenase expression of an untreated group is 100, and a degree of collagenase expression of a group treated with the material as compared to that of the control group is obtained.

O=C1O[C@H]([C@@H](O)CO)C(O)=C1O [Vitamin C, reference compound]
Degree of procollagen generation (%) (procollagen): 120%

CC1OC(OCC2OC(Oc3c(-c4ccc(O)cc4)oc4cc(O)cc(O)c4c3=O)C(O)C(O)C2O)C(O)C(O)C1O (centres unmarked) [Example 3-1, Kaempferol-3-O-rutinoside]
Degree of collagenase expression (%) (collagenase): 70%
Degree of procollagen generation (%) (procollagen): 121%

CC1OC(OCC2OC(Oc3c(-c4ccc(O)cc4)oc4cc(O)cc(O)c4c3=O)C(O)C(O)C2O)C(O)C(O)C1O (centres unmarked) [Example 3-2, Kaempferol-3-O-rutinoside]
Degree of collagenase expression (%) (collagenase): 71%
Degree of procollagen generation (%) (procollagen): 118%

Tocopherol [reference compound]
Degree of collagenase expression (%) (collagenase): 75%

CC1OC(OCC2OC(Oc3c(-c4ccc(O)cc4)oc4cc(O)cc(O)c4c3=O)C(O)C(O)C2O)C(O)C(O)C1O (centres unmarked) [Example 4-1, Kaempferol-3-O-rutinoside]
Degree of collagenase expression (%) (collagenase): 68%
Degree of procollagen generation (%) (procollagen): 145%

CC1OC(OCC2OC(Oc3c(-c4ccc(O)cc4)oc4cc(O)cc(O)c4c3=O)C(O)C(O)C2O)C(O)C(O)C1O (centres unmarked) [Example 4-3, Kaempferol-3-O-rutinoside]
Degree of collagenase expression (%) (collagenase): 70%
Degree of procollagen generation (%) (procollagen): 122%

CC1OC(OCC2OC(Oc3c(-c4ccc(O)cc4)oc4cc(O)cc(O)c4c3=O)C(O)C(O)C2O)C(O)C(O)C1O (centres unmarked) [Example 3-3, Kaempferol-3-O-rutinoside]
Degree of collagenase expression (%) (collagenase): 63%
Degree of procollagen generation (%) (procollagen): 138%

O=C(O[C@@H]1Cc2c(O)cc(O)cc2O[C@@H]1c1cc(O)c(O)c(O)c1)c1cc(O)c(O)c(O)c1 [EGCG, reference compound]
Degree of collagenase expression (%) (collagenase): 60%

CC1OC(OCC2OC(Oc3c(-c4ccc(O)cc4)oc4cc(O)cc(O)c4c3=O)C(O)C(O)C2O)C(O)C(O)C1O (centres unmarked) [kaempferol-3-O-rutinoside]
Effect on collagenase expression (in words) (collagenase; in vitro): inhibits the collagenase expression in vitro
Effect on procollagen generation (in words) (procollagen; in vitro): promotes the procollagen generation in vitro

CC1OC(OCC2OC(Oc3c(-c4ccc(O)cc4)oc4cc(O)cc(O)c4c3=O)C(O)C(O)C2O)C(O)C(O)C1O (centres unmarked) [Example 4-2, Kaempferol-3-O-rutinoside]
Degree of collagenase expression (%) (collagenase): 73%
Degree of procollagen generation (%) (procollagen): 123%
